{
  "source": "ChEMBL document CHEMBL5550110",
  "about": "“An insight into the mechanistic role of (-)-Ampelopsin F from Vatica chinensis L. in inducing insulin secretion in pancreatic beta cells” (Bioorg Med Chem, 2024)",
  "key": {"[1]": {"tested_on": "Beta-TC6", "assay": "Cytotoxicity against mouse Beta-TC6 cells assessed as reduction in cell viability at 50 uM incubated for 24 hrs by MTT assay", "assay_type": "toxicity, cell-based", "conditions": "beta-tc6, 24 h"}, "[2]": {"tested_on": "Beta-TC6", "assay": "Induction of insulin secretion in mouse Beta-TC6 cells assessed as fold increase at 50 uM incubated for 24 hrs by ELISA relative to control", "assay_type": "functional"}, "[3]": {"tested_on": "Beta-TC6", "assay": "Induction of mitochondrial membrane hyperpolarization in mouse Beta-TC6 cells at 50 uM after 24 hrs by JC-1 staining based fluorescence microscopy analysis", "assay_type": "cell-based"}, "[4]": {"tested_on": "Beta-TC6", "assay": "Induction of calcium level in mouse Beta-TC6 cells assessed as fold increase at 50 uM incubated for 30 mins by Fura-2 AM staining based fluorescence microscopy analysis relative to control", "assay_type": "functional", "conditions": "0.5 h"}, "[5]": {"assay": "Induction of GLUT2 expression in mouse Beta-TC6 cells assessed as fold increase at 50 uM incubated for 24 hrs by Western blotting analysis relative to control", "assay_type": "functional"}, "[6]": {"assay": "Induction of glucokinase expression in mouse Beta-TC6 cells assessed as fold increase at 50 uM incubated for 24 hrs by Western blotting analysis relative to control", "assay_type": "functional"}, "[7]": {"molecular_target": "Dipeptidyl peptidase 4 (Mus musculus) (UniProt P28843)", "sequence (P28843 whole entry, looked up)": "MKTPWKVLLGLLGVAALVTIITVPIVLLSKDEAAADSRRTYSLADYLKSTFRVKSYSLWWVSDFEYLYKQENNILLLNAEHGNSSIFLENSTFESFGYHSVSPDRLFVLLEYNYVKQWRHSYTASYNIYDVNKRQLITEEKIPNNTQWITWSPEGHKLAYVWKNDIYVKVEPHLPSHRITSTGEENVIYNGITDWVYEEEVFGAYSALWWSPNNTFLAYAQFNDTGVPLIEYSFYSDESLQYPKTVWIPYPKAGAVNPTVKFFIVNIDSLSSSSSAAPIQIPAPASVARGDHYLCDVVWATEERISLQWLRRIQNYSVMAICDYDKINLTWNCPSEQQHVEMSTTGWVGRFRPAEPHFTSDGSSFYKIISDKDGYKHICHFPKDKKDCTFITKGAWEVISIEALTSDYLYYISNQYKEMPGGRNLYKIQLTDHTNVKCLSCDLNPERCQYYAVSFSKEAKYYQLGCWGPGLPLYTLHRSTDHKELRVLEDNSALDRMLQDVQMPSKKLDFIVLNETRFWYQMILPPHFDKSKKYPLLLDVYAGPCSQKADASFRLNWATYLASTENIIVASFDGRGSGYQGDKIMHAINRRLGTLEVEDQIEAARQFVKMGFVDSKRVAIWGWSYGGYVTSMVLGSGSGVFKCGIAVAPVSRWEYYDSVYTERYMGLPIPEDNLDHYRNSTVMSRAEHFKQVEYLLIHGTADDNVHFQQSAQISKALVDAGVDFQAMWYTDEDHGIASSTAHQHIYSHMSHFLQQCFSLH", "assay": "Inhibition of DPP4 in mouse Beta-TC6 cells assessed as reduction in AMC production at 50 uM measured every min by fluorescence plate reader assay relative to control", "assay_type": "cell-based"}, "[8]": {"molecular_target": "Dipeptidyl peptidase 4 (Mus musculus) (UniProt P28843)", "assay": "Inhibition of DPP4 in mouse Beta-TC6 cells assessed as reduction in AMC production at 50 uM measured every min by fluorescence plate reader assay relative to positive control", "assay_type": "cell-based"}, "[9]": {"tested_on": "Beta-TC6", "assay": "Induction of insulin secretion in mouse Beta-TC6 cells assessed as fold increase at 0.1 uM incubated for 24 hrs by ELISA relative to control", "assay_type": "functional"}, "[10]": {"tested_on": "Beta-TC6", "assay": "Induction of mitochondrial membrane hyperpolarization in mouse Beta-TC6 cells at 0.1 uM after 24 hrs by JC-1 staining based fluorescence microscopy analysis", "assay_type": "cell-based"}, "[11]": {"tested_on": "Beta-TC6", "assay": "Induction of calcium level in mouse Beta-TC6 cells assessed as fold increase at 0.1 uM incubated for 30 mins by Fura-2 AM staining based fluorescence microscopy analysis relative to control", "assay_type": "functional", "conditions": "0.5 h"}, "[12]": {"assay": "Induction of glucokinase expression in mouse Beta-TC6 cells assessed as fold increase at 0.1 uM incubated for 24 hrs by Western blotting analysis relative to control", "assay_type": "functional"}, "[13]": {"tested_on": "Beta-TC6", "assay": "Induction of mitochondrial membrane hyperpolarization in mouse Beta-TC6 cells at 0.9 uM after 24 hrs by JC-1 staining based fluorescence microscopy analysis", "assay_type": "cell-based"}},
  "note": "Activity calls are given as the source filed them. The calls are words filed in the database; no cut-off is given here.",
  "data": [
    {"smiles": "Oc1ccc([C@@H]2c3c(O)cc(O)cc3[C@H]3c4c(O)cc(O)cc4[C@H]2[C@@H]3c2ccc(O)cc2)cc1", "values": [
      {"measurement": "Activity", "setting": "[1]", "result": "< 15", "unit": "%"},
      {"measurement": "fold change (FC)", "setting": "[2]", "result": 3.5},
      {"measurement": "Activity", "setting": "[3]", "result": "Active"},
      {"measurement": "fold change (FC)", "setting": "[4]", "result": 2},
      {"measurement": "fold change (FC)", "setting": "[5]", "result": 1.5},
      {"measurement": "fold change (FC)", "setting": "[6]", "result": 2.5},
      {"measurement": "inhibition", "setting": "[7]", "result": 63, "unit": "%"},
      {"measurement": "inhibition", "setting": "[8]", "result": 85, "unit": "%"}
    ]},
    {"smiles": "COc1ccc(Cl)cc1C(=O)NCCc1ccc(S(=O)(=O)NC(=O)NC2CCCCC2)cc1", "note": "[GLYBURIDE]", "values": [
      {"measurement": "fold change (FC)", "setting": "[9]", "result": 4},
      {"measurement": "Activity", "setting": "[10]", "result": "Active"},
      {"measurement": "fold change (FC)", "setting": "[11]", "result": 2},
      {"measurement": "fold change (FC)", "setting": "[12]", "result": 2}
    ]},
    {"smiles": "CC(C)[C@@H]1NC(=O)[C@H](C)OC(=O)[C@@H](C(C)C)NC(=O)[C@@H](C(C)C)OC(=O)[C@H](C(C)C)NC(=O)[C@H](C)OC(=O)[C@@H](C(C)C)NC(=O)[C@@H](C(C)C)OC(=O)[C@H](C(C)C)NC(=O)[C@H](C)OC(=O)[C@@H](C(C)C)NC(=O)[C@@H](C(C)C)OC1=O", "values": [
      {"measurement": "Activity", "setting": "[13]", "result": "inactive"}
    ]}
  ]
}
